# Structures can show the parent of a compound that is named as a salt.
# System: Acinetobacter baumannii ATCC17961
# Test: Antimicrobial susceptibility testing: 90% growth inhibitory concentration (IC90) determination
# Assay type: cell-based
# Details: 90% growth inhibitory concentration; Iso-Sensitest broth, optical density at 600 nm over 16h, 35±2° C.; read-out: AB ATCC 17961 IC90
# Protocol: (§1) Antimicrobial Susceptibility Testing:
# (§2) 90% Growth Inhibitory Concentration (IC90) Determination
# (§3) The in vitro antimicrobial activity of the compounds was determined according to the following procedure:
# (§4) The assay used a 10-points Iso-Sensitest broth medium to measure quantitatively the in vitro activity of the compounds against Acinetobacter baumannii ATCC17961 or ATCC17978.
# (§5) Stock compounds in DMSO were serially twofold diluted (e.g. range from 50 to 0.097 μM final concentration) in 384 wells microtiter plates and inoculated with 49 μl the bacterial suspension in Iso-Sensitest medium to have a final cell concentration of ˜5×10^(5) CFU/ml in a final volume/well of 50 ul/well. Microtiter plates were incubated at 35±2° C.
# (§6) Bacterial cell growth was determined with the measurement of optical density at λ=600 nm each 20 minutes over a time course of 16h. Growth inhibition was calculated during the logarithmic growth of the bacterial cells with determination of the concentration inhibiting 50% (IC50) and 90% (IC90) of the growth.
# Table 2 provides the 90% growth inhibitory concentrations (IC90) in micromoles per liter of the compounds of present invention obtained against the strain Acinetobacter baumannii ATCC17961.
row,IC90 [µM],SMILES
1,0.26,"CN=S(C)(=O)c1ccc(Nc2nccn3c(-c4ccc(OC)c(F)c4F)cnc23)cc1C (single isomer, unassigned; (+)) [Example 21, (+)-(4-((3-(2,3-difluoro-4-methoxyphenyl)imidazo[1,2-a]pyrazin-8-yl)amino)-2-methylphenyl)(methyl)(methylimino)-l6-sulfanone]"

# Same assay, conditions: Acinetobacter baumannii, ATCC17961, 16 h, 90% growth inhibitory concentration; Iso-Sensitest broth, optical density at 600 nm over 16h, 35±2° C.; read-out: AB ATCC 17961 IC90
row,IC90 [µM],SMILES
1,0.65,"Cc1cc(Nc2nccn3c(-c4ccc(Oc5ccccn5)c(F)c4F)cnc23)ccc1OCCOCCOCCN [Example 122, N-(4-(2-(2-(2-aminoethoxy)ethoxy)ethoxy)-3-methylphenyl)-3-(2,3-difluoro-4-(pyridin-2-yloxy)phenyl)imidazo[1,2-a]pyrazin-8-amine]"
2,0.22,"CCc1cc(Nc2nccn3c(-c4ccc(OC)c(F)c4F)cnc23)ccc1S(=O)(=O)N1CCN(C(=O)C2CCNCC2)CC1 [Example 108, (4-((4-((3-(2,3-difluoro-4-methoxyphenyl)imidazo[1,2-a]pyrazin-8-ylamino)-2-ethylphenyl)sulfonyl)piperazin-1-yl)(piperidin-4-yl)methanone hydrochloride]"
3,0.086,"CN=S(=O)(CCCN)c1ccc(Nc2nccn3c(-c4ccc(OC)c(F)c4F)cnc23)cc1 (centres unmarked) [Example 71, N-(4-(3-amino-N-methylpropylsulfonimidoyl)phenyl)-3-(2,3-difluoro-4-methoxyphenyl)imidazo[1,2-a]pyrazin-8-amine]"
4,0.086,"COc1ccc(-c2cnc3c(Nc4ccc([S@](C)(=O)=NCCCN)c(C)c4)nccn23)c(F)c1F [Example 27, (−)-((3-aminopropyl)imino)(4-((3-(2,3-difluoro-4-methoxyphenyl)imidazo[1,2-a]pyrazin-8-yl)amino)-2-methylphenyl)(methyl)-l6-sulfanone]"
5,0.12,"O=C1CCCN1c1ccc(Nc2nccn3c(-c4ccc(OC(F)F)cc4)cnc23)cc1Cl [Example 94, 1-(2-chloro-4-((3-(4-(difluoromethoxy)phenyl)imidazo[1,2-a]pyrazin-8-yl)amino)phenyl)pyrrolidin-2-one]"
6,0.6,"COc1ccc(-c2cnc3c(Nc4ccc(NC(C)=O)cc4)nccn23)cc1 [Example 15, N-[4-[[3-(4-methoxyphenyl)imidazo[1,2-a]pyrazin-8-yl]amino]phenyl]acetamide]"
7,0.33,"CN=S(=O)(c1ccc(Nc2nccn3c(-c4ccc(OC)c(F)c4F)cnc23)cc1C)C1CCN(C(=O)[C@@H]2C[C@@H](O)CN2)CC1 (stereo partly drawn) [Example 73, (4-(4-((3-(2,3-difluoro-4-methoxyphenyl)imidazo[1,2-a]pyrazin-8-yl)amino)-N,2-dimethylphenylsulfonimidoyl)piperidin-1-yl)((2S,4R)-4-hydroxypyrrolidin-2-yl)methanone]"
8,0.15,"CN=S(=O)(c1ccc(Nc2nccn3c(-c4ccc(OC)c(F)c4F)cnc23)cc1)C1CCN(C(=O)[C@@H]2C[C@@H](O)CN2)CC1 (stereo partly drawn) [Example 74, (4-(4-((3-(2,3-difluoro-4-methoxyphenyl)imidazo[1,2-a]pyrazin-8-yl)amino)-N-methylphenylsulfonimidoyl)piperidin-1-yl)((2S,4R)-4-hydroxypyrrolidin-2-yl)methanone]"
9,0.22,"COc1ccc(-c2cnc3c(Nc4ccc(S(=O)(=O)C[C@H]5CC[C@H](N)CC5)c(Cl)c4)nccn23)c(F)c1F [Example 116, rac-N-(4-((((lr,4r)-4-aminocyclohexyl)methyl)sulfonyl)-3-chlorophenyl)-3-(2,3-difluoro-4-methoxyphenyl)imidazol[1,2-a]pyrazin-8-amine]"
10,0.094,"NCCCCCC1CC(=O)N(c2ccc(Nc3nccn4c(-c5ccc(OC(F)F)cc5)cnc34)cc2)C1 (centres unmarked) [Example 62, 4-(5-aminopentyl)-1-(4-((3-(4-(difluoromethoxy)phenyl)imidazo[1,2-a]pyrazin-s-yl)amino)phenyl)pyrrolidin-2-one]"
11,0.14,"CN=S(C)(=O)c1ccc(Nc2nccn3c(-c4ccc(OC)c(F)c4F)cnc23)cc1F (centres unmarked) [Example 26, (4-((3-(2,3-difluoro-4-methoxyphenyl)imidazol[1,2-a]pyrazin-4-yl)amino)-2-fluorophenyl)(methyl)(methylimino)-l6-sulfanone]"
12,0.87,"CCc1cc(Nc2nccn3c(-c4ccc(OC)c(F)c4F)cnc23)ccc1S(=O)(=O)N1CCN(C(=O)[C@@H]2CCN(C(=O)[C@@H]3C[C@@H](O)CN3)C2)CC1 [Example 111, (4-((4-((3-(2,3-difluoro-4-methoxyphenyl)imidazo[1,2-a]pyrazin-s-yl)amino)-2-ethylphenyl)sulfonyl)piperazin-1-yl)((R)-1-((2S,4R)-4-hydroxypyrrolidine-2-carbonyl)pyrrolidin-3-yl)methanone hydrochloride]"
13,0.64,"CCc1cc(Nc2nccn3c(-c4ccc(OC)c(F)c4F)cnc23)ccc1S(=O)(=O)N1CCN(C(=O)C2(O)CCNCC2)CC1 [Example 109, (4-((4-((3-(2,3-difluoro-4-methoxyphenyl)imidazo [1,2-alpyrazin-8-yl)amino)-2-ethylphenyl)sulfonyl)piperazin-1-yl)(4-hydroxypiperidin-4-yl)methanonbydrochloride]"
14,0.34,"CCc1cc(Nc2nccn3c(-c4ccc(OC)c(F)c4F)cnc23)ccc1S(=O)(=O)N1CCN(C(=O)CN(C)C)CC1 [Example 104, 1-(4-((4-((3-(2,3-difluoro-4-methoxyphenyl)imidazo[1,2-a]pyrazin-8-yl)amino)-2-ethylphenyl)sulfonyl)piperazin-1-yl)-2-(dimethylamino)ethan-1-one]"
15,0.25,"CCc1cc(Nc2nccn3c(-c4ccc(OC)c(F)c4F)cnc23)ccc1S(=O)(=O)N1CCN(C(=O)[C@@H]2C[C@@H](O)CN2)CC1 [Example 106, (4-((4-((3-(2,3-difluoro-4-methoxyphenyl)imidazo [1,2-a]pyrazin-8-yl)amino)-2-ethylphenyl)sulfonyl)piperazin-1-yl)((2S,4R)-4-hydroxypyrrolidin-2-yl)methanone hydrochloride]"
16,0.29,COc1ccc(-c2cnc3c(Nc4ccc(S(=O)(=O)N5CCN(CCCN(C)C)CC5)c(C)c4)nccn23)c(F)c1F [Example 98]
17,0.3,"COc1ccc(-c2cnc3c(Nc4ccc5c(c4)CCC5NCCN)nccn23)c(F)c1F (centres unmarked) [Example 6, N1-(2-aminoethyl)-N5-[3-(2,3-difluoro-4-methoxy-phenyl)imidazo[1,2-a]pyrazin-8-yl]indane-1,5-diamine formic acid]"
18,0.12,"COc1ccc(-c2cnc3c(Nc4ccc(S(=O)(=O)NCCOCCN)c(C)c4)nccn23)c(F)c1F [Example 100, N-(2-(2-aminoethoxy)ethyl)-4-((3-(2,3-difluoro-4-methoxyphenyl)imidazo[1,2-a]pyrazin-8-yl)amino)-2-methylbenzenesulfonamide hydrochloride]"
19,0.36,"COc1ccc(-c2cnc3c(Nc4ccc5c(c4)CCC5=O)nccn23)c(F)c1F [Example 125, 5-[[3-(2,3-difluoro-4-methoxy-phenyl)imidazo[1,2-a]pyrazin-8-yl]amino]indan-1-one]"

# Same assay, conditions: Acinetobacter baumannii, ATCC17961, 16 h, read-out: AB ATCC 17961 IC90 (uM)
row,SMILES,IC90 [µM]
1,"COc1ccc(-c2cnc3c(Nc4ccc(S(=O)(=O)NCCOCCN)cc4)nccn23)c(F)c1F [Example 102, N-(2-(2-aminoethoxy)ethyl)-4-(3-(2,3-difluoro-4-methoxyphenyl)imidazo [1,2-a]pyrazin-8-yl)amino) benzenesulfonamide hydrochloride]",0.39
2,"COc1ccc(-c2cnc3c(Nc4ccc(S(=O)(=O)N5CCN(CCCN(C)C)CC5)c(Cl)c4)nccn23)c(F)c1F [Example 96, N-(3-chloro-4-((4-(3-(dimethylamino)propyl)piperazin-1-yl)sulfonyl)phenyl)-3-(2,3-difluoro-4-methoxyphenyl)imidazo[1,2-a]pyrazin-8-amine]",0.2

# System: Acinetobacter baumannii ATCC17978
# Test: as above
# Assay type: cell-based
# Details: ATCC17978, 90% growth inhibitory concentration, Iso-Sensitest broth, optical density at 600 nm over 16h, 35±2° C., read-out: AB ATCC 17978 IC90
# Protocol: as §1, §2, §3, §4, §5, §6
# Table 1 provides the 90% growth inhibitory concentrations (IC90) in micromoles per liter of the compounds of present invention obtained against the strain Acinetobacter baumannii ATCC17978.
row,IC90 [nM],SMILES
1,430,"COc1ccc(-c2cnc3c(Nc4ccc(NC(C)=O)cc4)nccn23)cc1Cl [Example 17, N-(4-((3-(3-chloro-4-methoxyphenyl)imidazo[1,2-a]pyrazin-8-yl)amino)phenyl)acetamide]"
2,280,"COc1ccc(-c2cnc3c(Nc4ccc(NC(C)=O)c(C)c4)nccn23)c(F)c1 [Example 89, N-(4-((3-(2-fluoro-4-methoxyphenyl)imidazo [1,2-a]pyrazin-8-yl)amino)-2-methylphenyl) acetamide]"
3,520,"CC(=O)Nc1ccc(Nc2nccn3c(-c4ccc(OC(F)F)c(Cl)c4)cnc23)cc1 [Example 41, N-(4-((3-(3-chloro-4-(difluoromethoxy)phenyl)imidazo[1,2-a]pyrazin-8-yl)amino)phenyl)acetamide]"
4,330,"O=S1(=O)CCCN1c1ccc(Nc2nccn3c(-c4ccc(OC(F)F)cc4)cnc23)cc1 [Example 1, 3-[4-(difluoromethoxy)phenyl]-N-[4-(1,1-dioxo-1,2-thiazolidin-2-yl)phenyl]imidazo[1,2-a]pyrazin-8-amine]"

# Reference: US20230141403A1 (Hoffmann-La Roche Inc., priority 2020, published 2023)
